The source of these data is US20070293475A1, “ARYL AND HETEROARYL TETRAHYDROBENZAZEPINE DERIVATIVES AND THEIR USE FOR TREATING GLAUCOMA” (ALCON MAN[…]., priority 2006, published 2007).

In one assay the target is T1, r5-HT2A (Rattus norvegicus, UniProt P14842).
T1 construct: endogenous in cells; host or cells: A7r5 rat vascular smooth muscle cells
Put plainly: r5-HT2A functional assay: FLIPR, intracellular calcium mobilization in A7r5 cells. Format: cell-based. The conditions noted are these: for EC50: FLIPR, rat A7r5 vascular smooth muscle cells, read-out: r5-HT 2A EC50; for Emax: percentage of maximum 5-HT-induced response, A7r5 cells, read-out: r5-HT 2A (Emax). The method, then: r5-HT2A Functional Assay: FLIPR
Rat Vascular Smooth Muscle Cells
(§1) The receptor-mediated mobilization of intracellular calcium ([Ca^2+]i) was studied using the Fluorescence Imaging Plate Reader (FLIPR) instrument. Rat vascular smooth muscle cells, A7r5, were grown in a normal media of DMEM/10% FBS and 10 μg/ml gentamycin. Confluent cell monolayers were trypsinized, pelleted, and re-suspended in normal media. Cells were seeded in a 50 μL volume at a density of 20,000 cells per well in a black wall, 96-well tissue culture plate and grown for 2 days. On the day of the experiment, one vial of FLIPR Calcium Assay Kit dye was re-suspended in 50 ml of a FLIPR buffer consisting of Hank's Balanced Salt Solution (HBSS), 20 mM HEPES, and 2.5 mM probenecid, pH 7.4. Cells were loaded with the calcium-sensitive dye by addition of an equal volume (50 μl) to each well of the 96-well plate and incubated with dye for 1 h at 23° C. Typically, test compounds were stored at […] in 50% DMSO/50% Ethanol solvent. Compounds were diluted 1:50 in 20% DMSO/20% Ethanol. For dose-response experiments, compounds were diluted 1:50 in FLIPR buffer and serially diluted 1:10 to give a 5- or 8-point dose-response curve.
(§2) At the beginning of an experimental run, a signal test was performed to check the basal fluorescence signal from the dye-loaded cells and the uniformity of the signal across the plate. The basal fluorescence was adjusted between 8000-12000 counts by modifying the exposure time, the camera F-stop, or the laser power. The instrument settings for a typical assay were as follows: laser power 0.3-0.6 W, camera F-stop F/2, and exposure time 0.4 sec. An aliquot (25 μl) of the test compound was added to the existing 100 μl dye-loaded cells at a dispensing speed of 50 μl/sec. Fluorescence data were collected in real-time at 1.0 sec intervals for the first 60 sec and at 6.0 sec intervals for an additional 120 sec. Responses were measured as peak fluorescence intensity minus basal and where appropriate were expressed as a percentage of a maximum 5-HT-induced response.
Background: Calcium assays in cells follow changes in intracellular calcium, usually with a dye or a luminescent sensor.

Assay [1] addresses T2, recombinant rat 5-HT2C receptor (Rattus norvegicus, UniProt P08909).
T2 construct: expressed in transfected cells; host or cells: SR3T3 cells
T2 sequence (P08909 33-460): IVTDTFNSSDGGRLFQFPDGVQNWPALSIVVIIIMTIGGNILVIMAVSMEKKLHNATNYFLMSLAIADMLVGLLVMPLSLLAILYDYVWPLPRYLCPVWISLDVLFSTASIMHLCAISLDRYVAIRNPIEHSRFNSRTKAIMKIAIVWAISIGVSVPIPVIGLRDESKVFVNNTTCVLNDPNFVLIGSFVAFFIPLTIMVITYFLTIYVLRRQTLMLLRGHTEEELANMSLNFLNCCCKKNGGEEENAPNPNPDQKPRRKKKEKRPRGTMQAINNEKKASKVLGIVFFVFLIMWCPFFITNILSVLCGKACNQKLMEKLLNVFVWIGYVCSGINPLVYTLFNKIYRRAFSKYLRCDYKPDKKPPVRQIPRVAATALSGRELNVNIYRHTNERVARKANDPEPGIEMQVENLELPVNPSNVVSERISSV
Put plainly: r5-HT2C functional assay: FLIPR, SR3T3 cells. Format: cell-based. The conditions noted are these: for EC50: FLIPR, SR3T3 cells expressing recombinant rat 5-HT2C, read-out: r5-HT 2C EC50; for Emax: SR-3T3, percentage of maximum 5-HT-induced response, SR3T3 cells, read-out: r5-HT 2C (Emax). The method, then:
as §1, §2
r5-HT2C Functional Assay: FLIPR
This assay were performed as for the r5-HT2A receptor above, except that SR3T3 cells expressing the recombinant rat 5-HT2C receptor were utilized.

Assay [2] addresses T3, human serotonin receptor clone 5-HT2A (Homo sapiens, UniProt P28223).
T3 construct: expressed in transfected cells; host or cells: CHO-K1 cells stably expressing aequorin and Galpha16
The assay is described as follows: h5-HT2 functional assay, CHO-K1 aequorin luminescence (5-HT2A). The conditions noted are these: for Emax: CHO-K1, relative to the response of α-methyl-5-HT, read-out: h5-HT 2A (Emax); for EC50: CHO-K1 cells, aequorin, Gα16, read-out: h5-HT 2A EC50. Format: cell-based. Here is the method: (§3) Functional response at the 5-HT2 receptor subtypes was determined using CHO-K1 cells stably expressing mitochondrially-targeted bioluminescent aequorin, Gα16, and one of either human serotonin receptor clone 5-HT2A, 5-HT2B , or 5-HT2C. Prior to testing, cells were loaded in suspension with coelenterazine for 4-16 hours and directly injected onto different concentrations of the test compound. Light emitted from the cells was measured 20-30 seconds following receptor activation. A luminometer (Hamamatsu, FDSS-6000) was used to record luminescence in response to the test compound. The mean response signal at each of 8-11 different concentrations was integrated to provide an estimation of receptor activation, expressed as the EC50 value. The efficacy of the response (Emax) at the 5-HT2A and 5-HT2B receptors is expressed relative to the response of α-methyl-5-HT under the same assay conditions while the efficacy at 5-HT2C is expressed relative to the response of 5-HT.

The target of assay [3] is T4, human serotonin receptor clone 5-HT2B (Homo sapiens, UniProt P41595).
T4 construct: expressed in transfected cells; host or cells: CHO-K1 cells stably expressing aequorin and Galpha16
Put plainly: h5-HT2 functional assay, CHO-K1 aequorin luminescence (5-HT2B). Format: cell-based. The conditions noted are these: for Emax: CHO-K1, relative to the response of α-methyl-5-HT, read-out: h5-HT 2B (Emax); for EC50: CHO-K1 cells, aequorin, Gα16, read-out: h5-HT 2B EC50. Here is the method: as §3

The target of assay [4] is T5, human serotonin receptor clone 5-HT2C (Homo sapiens, UniProt P28335).
T5 construct: expressed in transfected cells; host or cells: CHO-K1 cells stably expressing aequorin and Galpha16
T5 sequence (P28335 33-458): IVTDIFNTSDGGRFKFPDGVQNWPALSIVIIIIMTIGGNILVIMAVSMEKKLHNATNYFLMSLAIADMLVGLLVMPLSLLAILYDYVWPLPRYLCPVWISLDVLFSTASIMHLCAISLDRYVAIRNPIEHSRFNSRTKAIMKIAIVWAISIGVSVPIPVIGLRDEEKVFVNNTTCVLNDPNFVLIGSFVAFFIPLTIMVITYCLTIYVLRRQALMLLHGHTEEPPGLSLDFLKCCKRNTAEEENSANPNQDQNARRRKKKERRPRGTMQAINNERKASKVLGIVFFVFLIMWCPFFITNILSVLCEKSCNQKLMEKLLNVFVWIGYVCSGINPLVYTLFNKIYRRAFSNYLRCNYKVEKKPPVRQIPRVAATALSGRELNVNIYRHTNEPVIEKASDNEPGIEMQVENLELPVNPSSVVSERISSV
The assay is described as follows: h5-HT2 functional assay, CHO-K1 aequorin luminescence (5-HT2C). The class given is cell-based. The conditions noted are these: for Emax: CHO-K1, relative to the response of 5-HT, read-out: h5-HT 2C (Emax); for EC50: CHO-K1 cells, aequorin, Gα16, read-out: h5-HT 2C EC50. Here is the method:
as §3

Assay [5] concerns Lasered (Hypertensive) Eyes of Conscious Cynomolgus Monkeys. Put plainly: Acute IOP response in lasered (hypertensive) eyes of conscious cynomolgus monkeys. Format: in vivo. The following applies: for IOP change (mmHg): value in parentheses. Here is the method:
Acute IOP Response in Lasered (Hypertensive) Eyes of Conscious Cynomolgus Monkeys
Intraocular pressure (IOP) can be determined with an Alcon Pneumatonometer after light corneal anesthesia with 0.1% proparacaine. Eyes are washed with saline after each measurement. After a baseline IOP measurement, test compound is instilled in one 30 μL aliquot to the right eyes only of nine cynomolgus monkeys. Vehicle is instilled in the right eyes of six is additional animals. Subsequent IOP measurements are taken at 1, 3, and 6 hours.
The above method was used to determine the IOP lowering efficacy of Compound 1. All eyes were pretreated with 1 drop of 0.5% proparacaine to address discomfort.

[6] abbreviates: dose 100 μg topical, 1 hr, baseline IOP 38.3 mmHg.
Where [7] appears, read: dose 100 μg topical, 3 hr, baseline IOP 38.3 mmHg.
Where [8] appears, read: dose 100 μg topical, 6 hr, baseline IOP 38.3 mmHg.
The mark [9] stands for this setting: dose 150 μg topical, 1 hr, baseline IOP 40.4 mmHg.
Setting [10] is: dose 150 μg topical, 3 hr, baseline IOP 40.4 mmHg.
Where [11] appears, read: dose 150 μg topical, 6 hr, baseline IOP 40.4 mmHg.

SMILES strings stand for the structures.

T3 sequence (P28223 whole entry): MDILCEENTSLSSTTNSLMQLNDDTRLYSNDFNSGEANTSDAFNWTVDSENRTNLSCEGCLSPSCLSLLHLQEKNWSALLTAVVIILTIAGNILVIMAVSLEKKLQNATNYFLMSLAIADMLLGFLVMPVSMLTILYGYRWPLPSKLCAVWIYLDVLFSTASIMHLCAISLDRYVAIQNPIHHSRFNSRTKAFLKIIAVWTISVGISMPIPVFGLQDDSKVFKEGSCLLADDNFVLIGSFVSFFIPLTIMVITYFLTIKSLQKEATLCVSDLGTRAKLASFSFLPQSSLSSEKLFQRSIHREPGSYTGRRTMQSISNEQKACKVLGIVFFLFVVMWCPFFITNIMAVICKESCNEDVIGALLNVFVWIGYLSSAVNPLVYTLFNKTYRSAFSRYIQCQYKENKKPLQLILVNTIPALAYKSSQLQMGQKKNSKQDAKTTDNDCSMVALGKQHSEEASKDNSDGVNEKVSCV
T4 sequence (P41595 whole entry): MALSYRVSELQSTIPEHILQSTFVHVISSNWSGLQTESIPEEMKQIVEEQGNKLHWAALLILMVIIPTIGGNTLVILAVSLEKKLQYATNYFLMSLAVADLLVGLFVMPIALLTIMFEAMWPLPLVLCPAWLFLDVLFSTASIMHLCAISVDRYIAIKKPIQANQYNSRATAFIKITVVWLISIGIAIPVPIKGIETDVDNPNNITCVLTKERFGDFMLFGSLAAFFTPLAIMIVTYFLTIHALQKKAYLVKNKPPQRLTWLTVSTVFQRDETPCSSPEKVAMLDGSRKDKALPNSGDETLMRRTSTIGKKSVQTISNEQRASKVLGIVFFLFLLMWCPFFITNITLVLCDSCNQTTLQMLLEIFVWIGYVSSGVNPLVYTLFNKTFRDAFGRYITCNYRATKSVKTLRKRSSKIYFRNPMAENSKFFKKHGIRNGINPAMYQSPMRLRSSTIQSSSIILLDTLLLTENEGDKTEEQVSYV
T1 sequence (P14842 whole entry): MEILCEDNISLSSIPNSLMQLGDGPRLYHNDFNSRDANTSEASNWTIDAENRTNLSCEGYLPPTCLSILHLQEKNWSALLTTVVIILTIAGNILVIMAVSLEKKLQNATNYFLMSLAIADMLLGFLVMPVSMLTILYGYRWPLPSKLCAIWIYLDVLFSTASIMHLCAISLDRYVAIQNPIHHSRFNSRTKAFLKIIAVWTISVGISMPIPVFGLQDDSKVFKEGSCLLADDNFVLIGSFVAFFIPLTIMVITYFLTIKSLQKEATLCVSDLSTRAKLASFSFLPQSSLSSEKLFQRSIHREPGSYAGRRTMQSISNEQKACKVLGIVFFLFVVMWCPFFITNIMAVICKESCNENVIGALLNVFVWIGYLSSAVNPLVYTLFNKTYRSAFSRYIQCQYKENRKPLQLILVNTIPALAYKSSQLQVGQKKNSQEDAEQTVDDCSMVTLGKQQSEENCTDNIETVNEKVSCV

A word on the EC50: it is the concentration giving half of the maximal effect. In general, Emax refers to the greatest response seen or fitted, relative to the assay's reference. Turning to `COc1cccc(OCc2ccc3c(c2)CCNCC3)c1` [Example 6, 7-[(3-methoxyphenoxy)methyl]-2,3,4,5-tetrahydro-1H-3-benzazepine], the EC50 is 69 nM on r5-HT2A; 91 nM in assay [1]; 0.4 nM in assay [2]; 417 nM in assay [3]; 3.9 nM in assay [4]. Besides, the maximal effect (Emax) at r5-HT2A was 35%; in assay [1] it was 89%; in assay [2], 105%; in assay [3], 61%; in assay [4], 107%.
For the compound `Oc1cccc(Cc2ccc3c(c2)CCNCC3)c1` [Example 2, 3-(2,3,4,5-Tetrahydro-1H-benzo[d]azepin-7-ylmethyl)-phenol], the EC50 on r5-HT2A was more than 1000 nM; in assay [1] it was 120 nM; in assay [2], 31 nM; in assay [3] it was 1240 nM; in assay [4], 8.8 nM. The Emax in assay [1] was 100%; in assay [2] it was 98%; in assay [3], 35%; in assay [4], 109%.
For `Oc1cccc(OCc2ccc3c(c2)CCNCC3)c1` [Example 7, 3-(2,3,4,5-tetrahydro-1H-3-benzazepin-7-ylmethoxy)phenol], the figures for the concentration giving a half-maximal response (EC50) (at r5-HT2A; in assay [1]) were 440 nM and 65 nM, respectively. In addition, the maximal response (Emax) came to 40% on r5-HT2A and 92% in assay [1].
Consider `COc1cccc(Cc2ccc3c(c2)CCNCC3)c1` [Example 1, 7-(3-Methoxy-benzyl)-2,3,4,5-tetrahydro-1H-benzo[d]azepine], for which the concentration giving a half-maximal response (EC50) at r5-HT2A was 386 nM; in assay [1], 82 nM; in assay [2] it was 1.5 nM; in assay [3], 390 nM; in assay [4] it was 1.1 nM. Also, the maximum response (Emax) turned out to be 39% on r5-HT2A; 100% in assay [1]; 102% in assay [2]; 87% in assay [3]; 105% in assay [4]. Also, the “% IOP change” value in assay [5] (setting [6]) is recorded as −16.5%; in assay [5] (setting [7]) it was −33.1%; in assay [5] (setting [8]), −42.5%; in assay [5] (setting [9]), −15.6%; in assay [5] (setting [10]), −29.5%; in assay [5] (setting [11]), −37.8%. For the same compound, the “IOP change (mmHg)” value is given as “(6.6) mmHg” in assay [5] (setting [6]); “(13.1) mmHg” in assay [5] (setting [7]); “(16.8) mmHg” in assay [5] (setting [8]); “(6.1) mmHg” in assay [5] (setting [9]); “(12.3) mmHg” in assay [5] (setting [10]); “(15.6) mmHg” in assay [5] (setting [11]).
For the compound `COc1cccc(COc2cc3c(cc2C)CCNCC3)c1` [Example 8, 7-[(3-methoxybenzyl)oxy]-8-methyl-2,3,4,5-tetrahydro-1H-3-benzazepine], the EC50 at r5-HT2A came to 1920 nM; in assay [1], 250 nM; in assay [2] it was 2.4 nM; in assay [3], 230 nM; in assay [4], 4.5 nM. Moreover, the Emax at r5-HT2A amounted to 48%; in assay [1], 102%; in assay [2] it was 102%; in assay [3], 63%; in assay [4], 101%.
In the case of `COc1cc(Cc2ccc3c(c2)CCNCC3)cc(OC)c1` [Example 3, 7-(3,5-Dimethoxy-benzyl)-2,3,4,5-tetrahydro-1H-benzo[d]azepine], the 50% effective concentration (EC50) on r5-HT2A is more than 10000 nM; in assay [1] it was 629 nM; in assay [2] it was 16.9 nM; in assay [3], more than 10000 nM; in assay [4], 20 nM. Besides, the Emax was determined as 70% in assay [1], 104% in assay [2], 6% in assay [3] and 105% in assay [4].
